Measured values from patent US11814372B2, “Agonists of EPHA and their uses” (CASE WESTERN RESERVE UNIVERSITY, priority 2017, dated 2023).
Entries after “also recorded” stand apart in the source; their conditions may differ.

How the values were obtained:
EphA4 = target: T1, EphA4 (Homo sapiens, UniProt P54764); assay: Eph receptor activation in HEK 293 cells overexpressing EphA4; assay type: cell-based; conditions: HEK 293 cells overexpressing EphA4, 60 minutes
T1 construct: expressed in transfected cells; host or cells: HEK 293
Method: Cells were plated in 24-well dishes at a density of 100,000 cells/well and grown for 24 hours prior to stimulation with appropriate compounds and ephrins for the given amounts of time. Compounds were prepared in DMSO at 500 times the final concentrations and 0.2% DMSO was used as vehicle control. Following treatment, cells were lysed directly in SDS Gel Loading Buffer and immunoblotted as described previously. […] For this purpose, HEK 293 cell lines overexpressing EphA1, EphA2, EphA3, EphA4, and EphB3 kinases were utilized.

EphA4 LBD = target: T2, EphA4 LBD (Homo sapiens, UniProt P54764); assay: Isothermal titration calorimetry (ITC) binding; conditions: read-out: dissociation constant (KD)
T2 construct: made in house
Method: Production of the 181-residue EphA4 ligand binding domain (LBD, residues 29-209) and isothermal titration calorimetry (ITC) experiments were performed as previously described. […] By superimposing HSQC spectra, the shifted HSQC peaks could be identified and further assigned to the corresponding residues of the EphA4 ectodomain. The degree of perturbation was measured by an integrated chemical shift index (CSI) calculated by the formula [(ΔH)^2+(ΔN)^2/5]^1/2.

ERK and Akt = ERK and Akt inhibition in LK133A-Vec and LK133A-A2 liver epithelial cells (immunoblot); assay type: cell-based, mice
Method: (§1) Cells were plated in 24-well dishes at a density of 100,000 cells/well and grown for 24 hours prior to stimulation with appropriate compounds and ephrins for the given amounts of time. Compounds were prepared in DMSO at 500 times the final concentrations and 0.2% DMSO was used as vehicle control. Following treatment, cells were lysed directly in SDS Gel Loading Buffer and immunoblotted as described previously. Immunoprecipitation and immunofluorescence staining was performed as described. For immunoprecipitation, 300,000 cells/well were plated in 6-well dishes and lysed in modified RIPA Buffer (20 mM Tris-HCl pH 7.4, 20 mM NaF, 150 mM NaCl, 10% glycerol, 0.1% SDS, 0.5% DCA, 2 mM EDTA, 1% Triton X-100) following treatment. Either […] of ephrin-A1-Fc, or […] of EphA2 mouse monoclonal antibody (Clone D7, Millipore) were used, and mouse IgG was used as a negative control for EphA2 IP.
To address this question, we utilized an immortalized liver epithelial cell line, LK133A, isolated from a hepatoma induced by DEN in EphA2 knockout mice. Retroviral vector was used to restore EphA2 expression in these cells (LK133A-A2), and cells transduced with an empty vector were used as control (LK133AVec).

EphA2 [1] = target: T3, EphA2 (Homo sapiens, UniProt P29317); assay: Internalization of endogenous EphA2 in parental MDA-MB-231 cells (immunofluorescence); assay type: cell-based; conditions: two hours, 50 μM
Method: as §1
Similar to other receptor tyrosine kinases, activation of the EphA2 receptor by its ligand, ephrin-A1, results in receptor internalization and eventual degradation. […] This was first performed using the U373 glioma cell line engineered to overexpress EphA2.

PC-3 cells = assay: Cell rounding analysis; assay type: cell-based, human; conditions: 50 µM, 30 or 60 min
Text: As we first reported in 2000, EphA2 activation on PC-3 cells by ephrin-A1 induced rapid cell rounding, a phenomenon that is correlated with inhibition of integrin function.

A172-A2 glioma cells = assay: Haptotactic cell migration toward fibronectin (modified Boyden chamber); assay type: cell-based; conditions: 4 hours
Text: (§2) One of the well-established functions of Eph receptors is the ligand-dependent repulsive guidance of cell migration. As a ligand-mimicking agonist for EphA2, doxazosin is expected to activate EphA2 on tumor cells and repulse migrating tumor cells in vitro. To test this possibility, we first investigated the effects of doxazosin on integrin-mediated haptotactic cell migration toward fibronectin in a modified Boyden chamber cell migration assay. […] The inhibitory effects were observed when doxazosin was presented either in the bottom chamber, or in both top and bottom chambers in the Transwell assay system. […] Therefore, doxazosin can recapitulate a key function attributed to its native ligands, i.e., negative regulation of cell migration.

[2] = test system: MDA-MB-231 breast cancer cells; assay: as above; assay type: cell-based; conditions: MDA-MB-231 cells, 4 hours
Text: as §2

[3] = test system: DU145 and PC-3 cell xenografts; conditions: previously shown, independent of α1-adrenoreceptor; cited from earlier work
EphA2 [4] = target: T3, EphA2; assay: Activation of endogenous EphA2 in PC-3 cells (pEphA/B immunoblot); assay type: cell-based; design: host or cells: PC-3; conditions: endogenous EphA2, 30 minutes
Method: as §1
(§3) To determine whether the EphA2 agonist activity of doxazosin is cell-context specific, we evaluated the effects of doxazosin on additional cell types. We first utilized HEK 293 cells overexpressing EphA2 (HEK 293-A2) that we described previously. […] Next we tested PC-3 cells that express high levels of endogenous EphA2 receptor. […] We next evaluated the time-course of activation in both MDA-231-A2 and HEK 293-A2 cells upon treatment with a single 50 μM dose of doxazosin.

EphA2 [5] = target: T3, EphA2; assay: EphA2 activation in A172-A2 glioma cells (immunoprecipitation, immunoblot); assay type: cell-based; design: expressed in transfected cells; host or cells: A172 (A172-A2)
Method: Cells were plated in 24-well dishes at a density of 100,000 cells/well and grown for 24 hours prior to stimulation with appropriate compounds and ephrins for the given amounts of time. Compounds were prepared in DMSO at 500 times the final concentrations and 0.2% DMSO was used as vehicle control. Following treatment, cells were lysed directly in SDS Gel Loading Buffer and immunoblotted as described previously. […] For immunoprecipitation, 300,000 cells/well were plated in 6-well dishes and lysed in modified RIPA Buffer (20 mM Tris-HCl pH 7.4, 20 mM NaF, 150 mM NaCl, 10% glycerol, 0.1% SDS, 0.5% DCA, 2 mM EDTA, 1% Triton X-100) following treatment. Either 10 ag of ephrin-A1-Fc, or 4 mg of EphA2 mouse monoclonal antibody (Clone D7, Millipore) were used, and mouse IgG was used as a negative control for EphA2 IP. […] We first tested this by utilizing the A172 glioma cells engineered to overexpress EphA2 receptor (A172-A2).

EphA2 [6] = target: T3, EphA2; assay: EphA2 activation in HEK 293-A2 cells (pEphA/B immunoblot); assay type: cell-based; design: expressed in transfected cells; host or cells: HEK 293 (HEK 293-A2)
Method: as §1, §3

T3 sequence (P29317 24-976): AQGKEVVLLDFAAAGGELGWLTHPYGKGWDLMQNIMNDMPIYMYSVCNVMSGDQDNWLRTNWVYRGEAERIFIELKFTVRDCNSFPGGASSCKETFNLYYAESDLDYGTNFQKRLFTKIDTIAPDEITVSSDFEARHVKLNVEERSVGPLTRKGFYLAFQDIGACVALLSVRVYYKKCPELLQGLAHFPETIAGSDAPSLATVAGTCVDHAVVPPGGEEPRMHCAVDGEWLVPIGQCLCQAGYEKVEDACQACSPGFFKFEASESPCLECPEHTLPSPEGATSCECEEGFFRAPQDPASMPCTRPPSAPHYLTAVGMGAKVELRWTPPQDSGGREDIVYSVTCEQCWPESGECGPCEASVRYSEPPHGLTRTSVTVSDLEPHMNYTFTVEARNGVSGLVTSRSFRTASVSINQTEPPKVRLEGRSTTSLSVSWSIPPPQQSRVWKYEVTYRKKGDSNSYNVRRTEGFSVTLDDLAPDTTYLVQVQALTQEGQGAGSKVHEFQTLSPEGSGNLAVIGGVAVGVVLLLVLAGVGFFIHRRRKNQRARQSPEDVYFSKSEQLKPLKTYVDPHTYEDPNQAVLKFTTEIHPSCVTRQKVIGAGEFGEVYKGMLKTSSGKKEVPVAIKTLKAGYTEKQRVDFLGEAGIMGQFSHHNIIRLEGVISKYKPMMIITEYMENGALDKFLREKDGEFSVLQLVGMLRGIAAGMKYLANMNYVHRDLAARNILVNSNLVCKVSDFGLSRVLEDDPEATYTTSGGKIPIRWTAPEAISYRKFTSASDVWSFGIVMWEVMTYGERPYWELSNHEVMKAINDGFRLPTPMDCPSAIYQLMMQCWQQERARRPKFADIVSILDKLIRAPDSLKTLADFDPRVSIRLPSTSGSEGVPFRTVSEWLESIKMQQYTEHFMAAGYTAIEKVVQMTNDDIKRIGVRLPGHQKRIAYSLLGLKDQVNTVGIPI
T1 sequence (P54764 20-986, species assumed): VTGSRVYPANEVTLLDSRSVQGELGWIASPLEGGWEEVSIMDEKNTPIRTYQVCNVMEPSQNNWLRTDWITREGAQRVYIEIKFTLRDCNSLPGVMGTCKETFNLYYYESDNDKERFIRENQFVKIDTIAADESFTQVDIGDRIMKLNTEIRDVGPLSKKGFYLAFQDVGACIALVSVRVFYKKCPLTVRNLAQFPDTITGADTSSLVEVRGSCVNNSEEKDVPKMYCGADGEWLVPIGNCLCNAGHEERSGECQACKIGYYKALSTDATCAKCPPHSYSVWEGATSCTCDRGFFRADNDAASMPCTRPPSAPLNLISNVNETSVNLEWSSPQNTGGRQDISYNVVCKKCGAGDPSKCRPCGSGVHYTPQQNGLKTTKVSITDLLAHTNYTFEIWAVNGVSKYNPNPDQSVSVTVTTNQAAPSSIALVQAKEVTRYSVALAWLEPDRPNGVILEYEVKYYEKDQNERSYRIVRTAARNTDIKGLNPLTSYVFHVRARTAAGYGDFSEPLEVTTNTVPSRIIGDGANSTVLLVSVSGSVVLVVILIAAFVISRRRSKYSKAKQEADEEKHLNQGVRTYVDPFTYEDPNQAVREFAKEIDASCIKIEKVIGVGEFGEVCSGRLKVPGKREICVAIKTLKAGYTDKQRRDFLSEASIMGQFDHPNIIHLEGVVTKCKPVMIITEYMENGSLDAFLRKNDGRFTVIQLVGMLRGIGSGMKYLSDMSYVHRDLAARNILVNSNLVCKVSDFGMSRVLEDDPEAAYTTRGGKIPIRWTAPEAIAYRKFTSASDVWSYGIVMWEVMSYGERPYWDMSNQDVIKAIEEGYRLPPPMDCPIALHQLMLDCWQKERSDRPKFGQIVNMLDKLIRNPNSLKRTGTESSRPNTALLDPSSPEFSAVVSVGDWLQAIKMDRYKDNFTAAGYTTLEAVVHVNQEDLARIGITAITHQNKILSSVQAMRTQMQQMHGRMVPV
T2 sequence (P54764 29-209, species assumed): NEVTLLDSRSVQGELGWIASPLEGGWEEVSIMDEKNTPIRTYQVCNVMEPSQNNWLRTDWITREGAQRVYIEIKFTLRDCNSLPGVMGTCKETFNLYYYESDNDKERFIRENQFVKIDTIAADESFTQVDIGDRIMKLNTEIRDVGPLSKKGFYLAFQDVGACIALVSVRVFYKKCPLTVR

For `COc1cc2nc(N3CCN(C(=O)C4COc5ccccc5O4)CC3)nc(N)c2cc1OC` (stereo not drawn) [doxazosin], the “EphA4 kinase activation, Eph receptor panel” value (EphA4) was “activated both EphA2 and EphA4 kinases”, the Kd (EphA4 LBD) was 12.4 µM and the “ERK and Akt inhibition after reintroduction of EphA2 expression” value (ERK and Akt; LK133A-A2 cells) was “restored ERK and Akt inhibition”. For the same molecule, the “inhibition of ERK and Akt activities in the absence of EphA2” value (ERK and Akt; LK133A-Vec cells (EphA2 knockout, empty vector)) was “neither doxazosin nor ephrin-A1-Fc was able to inhibit ERK and Akt activities; also recorded: notable increase in ERK and Akt activation”, the “internalization of endogenous EphA2” value (EphA2 [1]) was “significant internalization of the endogenous EphA2” and the cell rounding (PC-3 cells) was “caused rounding of PC-3 cells”. The “haptotactic cell migration toward fibronectin” value (A172-A2 glioma cells) was “dose-dependent inhibition of cell migration”, the “haptotactic cell migration toward fibronectin” value [2] was “dose-dependent inhibition of cell migration” and the “subcutaneous growth of DU145 and PC-3 cell xenografts” value [3] was “moderately decrease subcutaneous growth”. The “concentration at which EphA2 activation became evident” value (EphA2 [4]) was 50 µM, the “concentration at which EphA2 activation starts” value (EphA2 [5]; A172-A2 glioma cells, 90 minutes) was “around 25 μM” and the “EphA2 level after treatment” value (EphA2 [5]; A172 cells) was “degradation of EphA2”. The “concentration at which significant EphA2 activation starts” value (EphA2 [6]; HEK 293-A2 cells, 30 minutes) was 25 µM, the “time at which EphA2 activation became evident” value (EphA2 [6]; HEK 293-A2 cells, single 50 μM dose) was 10 min and the “EphA2 kinase activation, Eph receptor panel” value (EphA2 [6]; HEK 293 cells overexpressing EphA2, 60 minutes) was “activated both EphA2 and EphA4 kinases”.
